# Assay results reported in patent US8889667B2 (Agios Pharmaceuticals, Inc, priority 2010, dated 2014).
# Target: PKM2 (Homo sapiens, UniProt P14618)
# Experiment: PKM2 Assay (activation, LDH-coupled, absorbance at 340 nm)
# Type: biochemical
# Settings: Table 4
# Protocol: • PKM2 stock enzyme solution was diluted in Reaction Buffer • 2 μL of compound was added into each well first, and then 180 μL of the Reaction Mix was added. • Reaction mixture with compound (without ADP) was incubated for 30 minutes at 4° C. • Plates were re-equilibrated to room temperature prior to adding 20 μL ADP to initiate the reaction. • Reaction progress was measured as changes in absorbance at 340 nm wavelength at room temperature (25° C.) Reaction Mix: PKM2 (50 ng/well), ADP (0.7 mM), PEP (0.15 mM), NADH (180 μM), LDH (2 units) in Reaction Buffer Reaction Buffer: 100 mM KCl, 50 mM Tris pH 7.5, 5 mM MgCl2, 1 mM DTT, 0.03% BSA.
# Representative compounds of the invention were tested for their ability to activate PKM2 using the above assay. For simplicity, the activation activity of these compounds is represented as an AC50 in Tables 4 and 5 and throughout the application. […] “B” refers to an activator of PKM2 with an EC50 between 100 nM and 500 nM. “C” refers to an activator of PKM2 with an EC50 between 500 nM and 1000 nM. “D” refers to an activator of PKM2 with an EC50 between 1 μM and 20 μM. “E” refers a compound whose activation of PKM2 was not measurable. “N/C” refers to AC50 data not available.
# Chain of PKM2 (P14618 whole entry): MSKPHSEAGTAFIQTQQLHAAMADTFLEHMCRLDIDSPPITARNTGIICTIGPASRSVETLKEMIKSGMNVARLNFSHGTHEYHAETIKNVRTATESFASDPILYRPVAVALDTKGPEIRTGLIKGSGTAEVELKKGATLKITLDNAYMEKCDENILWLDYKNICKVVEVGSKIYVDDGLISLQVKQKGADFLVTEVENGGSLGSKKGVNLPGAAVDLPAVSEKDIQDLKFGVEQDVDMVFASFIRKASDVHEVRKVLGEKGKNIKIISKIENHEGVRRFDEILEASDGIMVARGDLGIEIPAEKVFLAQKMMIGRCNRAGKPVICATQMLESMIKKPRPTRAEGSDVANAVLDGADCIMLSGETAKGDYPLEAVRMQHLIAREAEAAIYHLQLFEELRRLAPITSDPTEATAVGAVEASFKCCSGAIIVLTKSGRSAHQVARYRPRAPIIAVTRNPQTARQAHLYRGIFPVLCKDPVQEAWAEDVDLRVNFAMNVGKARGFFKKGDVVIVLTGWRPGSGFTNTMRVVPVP
row,Compound,AC50 [nM]
1,"C[C@@H]1CN(Cc2cc(F)c(F)c(F)c2)CCN1C(=O)c1ccc(NS(=O)(=O)c2cccc3cccnc23)cc1 [Compound 149, (R)—N-(4-(2-methyl-4-(3,4,5-trifluorobenzyl)piperazine-1-carbonyl)phenyl)quinoline-8-sulfonamide]",< 100
2,"C[C@@H]1CN(Cc2ccccc2F)CCN1C(=O)c1ccc(NS(=O)(=O)c2cccc3cccnc23)cc1 [Compound 150, (R)—N-(4-(4-(2-fluorobenzyl)-2-methylpiperazine-1-carbonyl)phenyl)quinoline-8-sulfonamide]",< 100
3,"C[C@@H]1CN(CC2CCCCC2)CCN1C(=O)c1ccc(NS(=O)(=O)c2cccc3cccnc23)cc1 [Compound 151, (R)—N-(4-(4-(cyclohexylmethyl)-2-methylpiperazine-1-carbonyl)phenyl)quinoline-8-sulfonamide]",< 100
4,"C[C@H]1CN(Cc2ccc(F)cc2)CCN1C(=O)c1ccc(NS(=O)(=O)c2cccc3cccnc23)cc1 [Compound 152, (S)—N-(4-(4-(4-fluorobenzyl)-2-methylpiperazine-1-carbonyl)phenyl)quinoline-8-sulfonamide]",< 100
5,"C[C@H]1CN(CC2CCCCC2)CCN1C(=O)c1ccc(NS(=O)(=O)c2cccc3cccnc23)cc1 [Compound 153, (S)—N-(4-(4-(cyclohexylmethyl)-2-methylpiperazine-1-carbonyl)phenyl)quinoline-8-sulfonamide]",100 to 500
6,"C[C@H]1CN(Cc2ccc(F)c(F)c2F)CCN1C(=O)c1ccc(NS(=O)(=O)c2cccc3cccnc23)cc1 [Compound 154, (S)—N-(4-(2-methyl-4-(2,3,4-trifluorobenzyl)piperazine-1-carbonyl)phenyl)quinoline-8-sulfonamide]",100 to 500
7,"C[C@H]1CN(Cc2cc(F)c(F)c(F)c2)CCN1C(=O)c1ccc(NS(=O)(=O)c2cccc3cccnc23)cc1 [Compound 155, (S)—N-(4-(2-methyl-4-(3,4,5-trifluorobenzyl)piperazine-1-carbonyl)phenyl)quinoline-8-sulfonamide]",< 100
8,"C[C@H]1CN(CC2CCCCO2)CCN1C(=O)c1ccc(NS(=O)(=O)c2cccc3cccnc23)cc1 (stereo partly drawn) [Compound 156, N-(4-((2S)-2-methyl-4-((tetrahydro-2H-pyran-2-yl)methyl)piperazine-1-carbonyl)phenyl)quinoline-8-sulfonamide]",500 to 1000
9,"CC(c1ccc(Cl)c(F)c1)N1CCN(C(=O)c2ccc(NS(=O)(=O)c3cccc4cccnc34)cc2)[C@H](C)C1 (stereo partly drawn) [Compound 157, N-(4-((2R)-4-(1-(4-chloro-3-fluorophenyl)ethyl)-2-methylpiperazine-1-carbonyl)phenyl)quinoline-8-sulfonamide]",100 to 500
10,"CC(c1cc(F)c(F)c(F)c1)N1CCN(C(=O)c2ccc(NS(=O)(=O)c3cccc4cccnc34)cc2)[C@H](C)C1 (stereo partly drawn) [Compound 158, N-(4-((2R)-2-methyl-4-(1-(3,4,5-trifluorophenyl)ethyl)piperazine-1-carbonyl)phenyl)quinoline-8-sulfonamide]",100 to 500
11,"CC(c1c(F)cccc1F)N1CCN(C(=O)c2ccc(NS(=O)(=O)c3cccc4cccnc34)cc2)[C@H](C)C1 (stereo partly drawn) [Compound 159, N-(4-((2R)-4-(1-(2,6-difluorophenyl)ethyl)-2-methylpiperazine-1-carbonyl)phenyl)quinoline-8-sulfonamide]",100 to 500
12,"CC(c1ccc(F)cc1F)N1CCN(C(=O)c2ccc(NS(=O)(=O)c3cccc4cccnc34)cc2)[C@H](C)C1 (stereo partly drawn) [Compound 160, N-(4-((2R)-4-(1-(2,4-difluorophenyl)ethyl)-2-methylpiperazine-1-carbonyl)phenyl)quinoline-8-sulfonamide]",< 100
13,"CC[C@H]1CN(C(C)c2cc(F)cc(F)c2)CCN1C(=O)c1ccc(NS(=O)(=O)c2cccc3cccnc23)cc1 (stereo partly drawn) [Compound 161, N-(4-((2S)-4-(1-(3,5-difluorophenyl)ethyl)-2-ethylpiperazine-1-carbonyl)phenyl)quinoline-8-sulfonamide]",< 100
14,"CC[C@H]1CN(C(C)c2cc(F)c(F)c(F)c2)CCN1C(=O)c1ccc(NS(=O)(=O)c2cccc3cccnc23)cc1 (stereo partly drawn) [Compound 162, N-(4-((2S)-2-ethyl-4-(1-(3,4,5-trifluorophenyl)ethyl)piperazine-1-carbonyl)phenyl)quinoline-8-sulfonamide]",100 to 500
15,"C[C@@H]1CN(CC2CCCCO2)CCN1C(=O)c1ccc(NS(=O)(=O)c2cccc3cccnc23)cc1 (stereo partly drawn) [Compound 163, N-(4-((2R)-2-methyl-4-((tetrahydro-2H-pyran-2-yl)methyl)piperazine-1-carbonyl)phenyl)quinoline-8-sulfonamide]",< 100
16,"C[C@H]1CN(Cc2c(F)cc(F)cc2F)CCN1C(=O)c1ccc(NS(=O)(=O)c2cccc3cccnc23)cc1 [Compound 164, (S)—N-(4-(2-methyl-4-(2,4,6-trifluorobenzyl)piperazine-1-carbonyl)phenyl)quinoline-8-sulfonamide]",100 to 500
17,O=C(c1ccc(NS(=O)(=O)c2cccc3cccnc23)cc1)N1CCN(Cc2ccc(F)cc2)C[C@@H]1c1ccccc1 [Compound 165],< 100
18,C[C@H]1CN(C(=O)O[C@@H]2CCOC2)CCN1C(=O)c1ccc(NS(=O)(=O)c2cccc3cccnc23)cc1 [Compound 166],100 to 500
19,CC(c1c(F)cc(F)cc1F)N1CCN(C(=O)c2ccc(NS(=O)(=O)c3cccc4cccnc34)cc2)[C@H](C)C1 (stereo partly drawn) [Compound 167],< 100
20,CC(c1cc(F)c(F)cc1F)N1CCN(C(=O)c2ccc(NS(=O)(=O)c3cccc4cccnc34)cc2)[C@H](C)C1 (stereo partly drawn) [Compound 168],100 to 500

row,Compound,AC50 [nM]
1,CC(c1ccc(F)cc1F)N1CCN(C(=O)c2ccc(NS(=O)(=O)c3cccc4cccnc34)cc2)[C@@H](C)C1 (stereo partly drawn) [Compound 169],100 to 500
2,CC(c1cc(F)cc(F)c1)N1CCN(C(=O)c2ccc(NS(=O)(=O)c3cccc4cccnc34)cc2)[C@@H](C)C1 (stereo partly drawn) [Compound 170],100 to 500
3,CC(c1ccc(F)cc1)N1CCN(C(=O)c2ccc(NS(=O)(=O)c3cccc4cccnc34)cc2)[C@@H](C)C1 (stereo partly drawn) [Compound 171],100 to 500
4,CC(c1c(F)cc(F)cc1F)N1CCN(C(=O)c2ccc(NS(=O)(=O)c3cccc4cccnc34)cc2)[C@@H](C)C1 (stereo partly drawn) [Compound 172],100 to 500
5,CC(c1ccc(F)c(F)c1F)N1CCN(C(=O)c2ccc(NS(=O)(=O)c3cccc4cccnc34)cc2)[C@@H](C)C1 (stereo partly drawn) [Compound 173],100 to 500
6,CC(c1cc(F)c(F)cc1F)N1CCN(C(=O)c2ccc(NS(=O)(=O)c3cccc4cccnc34)cc2)[C@@H](C)C1 (stereo partly drawn) [Compound 174],100 to 500
7,CC(C)[C@H]1CN(Cc2ccc(F)cc2)CCN1C(=O)c1ccc(NS(=O)(=O)c2cccc3cccnc23)cc1 [Compound 175],1000 to 20000
8,CC(C)[C@H]1CN(Cc2cc(F)cc(F)c2)CCN1C(=O)c1ccc(NS(=O)(=O)c2cccc3cccnc23)cc1 [Compound 176],1000 to 20000
9,CC(C)[C@H]1CN(C(C)c2ccc(F)cc2)CCN1C(=O)c1ccc(NS(=O)(=O)c2cccc3cccnc23)cc1 (stereo partly drawn) [Compound 177],1000 to 20000
10,C[C@H]1CN(CC2CC2)CCN1C(=O)c1ccc(NS(=O)(=O)c2cccc3cccnc23)cc1Cl [Compound 178],100 to 500
11,C[C@H]1CN(Cc2cc(F)cc(F)c2)CCN1C(=O)c1ccc(NS(=O)(=O)c2cccc3cccnc23)cc1Cl [Compound 179],100 to 500
12,O=C(c1ccc(NS(=O)(=O)c2cccc3cccnc23)cc1)N1CCN(CC2CC2)C[C@@H]1c1ccccc1 [Compound 180],100 to 500
13,O=C(c1ccc(NS(=O)(=O)c2cccc3cccnc23)cc1)N1CCN(Cc2cc(F)cc(F)c2)C[C@@H]1c1ccccc1 [Compound 181],100 to 500
14,CC(c1ccc(Cl)c(F)c1)N1CCN(C(=O)c2ccc(NS(=O)(=O)c3cccc4cccnc34)cc2)[C@@H](C)C1 (stereo partly drawn) [Compound 182],100 to 500
15,CC(c1ccccc1F)N1CCN(C(=O)c2ccc(NS(=O)(=O)c3cccc4cccnc34)cc2)[C@H](C)C1 (stereo partly drawn) [Compound 183],< 100
16,"C[C@H]1CN(Cc2ccc(F)cc2)CCN1C(=O)c1ccc(NS(=O)(=O)c2cccc3cccnc23)cc1Cl [Compound 184, (S)—N-(3-chloro-4-(4-(4-fluorobenzyl)-2-methylpiperazine-1-carbonyl)phenyl)quinoline-8-sulfonamide]",100 to 500
17,"C[C@H]1CN(Cc2ccc(Cl)c(F)c2)CCN1C(=O)c1ccc(NS(=O)(=O)c2cccc3cccnc23)cc1Cl [Compound 185, (S)—N-(3-chloro-4-(4-(4-chloro-3-fluorobenzyl)-2-methylpiperazine-1-carbonyl)phenyl)quinoline-8-sulfonamide]",500 to 1000
18,"C[C@H]1CN(CC2CCCC2)CCN1C(=O)c1ccc(NS(=O)(=O)c2cccc3cccnc23)cc1Cl [Compound 186, (S)—N-(3-chloro-4-(4-(cyclopentylmethyl)-2-methylpiperazine-1-carbonyl)phenyl)quinoline-8-sulfonamide]",< 100
19,"C[C@H]1CN(CC2CCOC2)CCN1C(=O)c1ccc(NS(=O)(=O)c2cccc3cccnc23)cc1Cl (stereo partly drawn) [Compound 187, N-(3-chloro-4-((2S)-2-methyl-4-((tetrahydrofuran-3-yl)methyl)piperazine-1-carbonyl)phenyl)quinoline-8-sulfonamide]",100 to 500
